Assay results from patent US11247998B2, “Piperazine heteroaryl derivative, preparation method therefor and use of same in medicine” (priority 2017, dated 2022).

What was measured:
[1] = system: HBV DNA replication in HepG2.2.15 cells; experiment: In vitro anti-HBV activity test (quantitative assay of intracellular HBV DNA), HepG2.2.15 cells, quantitative PCR; assay type: cell-based, hepatitis B virus (HBV); settings: Hepatitis B virus, HBV DNA by quantitative PCR; for EC50: compound treatment Day 2 to Day 8; for Emax: read-out: Emax (effect value of the compound to maximally inhibit HBV DNA replication)
Description: In vitro anti-HBV activity test of the compound of the present invention (quantitative assay of intracellular HBV DNA)
HepG2.2.15 cell is a stable expression cell line that has integrated HBV genome.
Virus particles containing HBV DNA can be synthesized by replication, transcription and encapsidation in the cells, and then secreted. In this study, the quantitative analysis of HBV DNA produced by HepG2.2.15 in vitro proliferation was carried out by quantitative PCR method, thereby determining the activity of the compound of the present invention on inhibiting the HBV DNA replication by inhibiting the assembly of HBV capsid protein.
HepG2.2.15 cells were cultured in DMEM/high glucose medium (10% FBS, […] G418) and passaged every three days. On the day of the experiment, a cell suspension was prepared with fresh cell culture medium, and incubated in a 96-well plate (Corning, #3599) at 40,000 cells/well, at 5% carbon dioxide, 37° C. On Day 2, the compound was dissolved in pure DMSO at a concentration of 20 mM, and then the first concentration of 2 mM was formulated with DMSO, and diluted in 4-fold concentration gradient to 8 concentrations. A control well was added with 90 μl of DMSO. The compound solution was diluted 200-fold with DMEM/high glucose medium. The cell culture plate inoculated on Day 1 was taken out. The medium in the wells was removed by a negative pressure suction device, and the formulated medium containing the compound at each concentration was added respectively to each well at 200 μl/well. The plate was incubated at 37° C. for 72 hours. On Day 5, the medium of the cultured cells was replaced with fresh medium containing the same compound in the same way as Day 2, and then the plate was incubated at 37° C. for 72 hours. On Day 8, the cell culture plate was taken out, centrifuged at 300 g for 3 minutes, and the culture supernatant was collected at 200 μl/well. HBV DNA was extracted from the cell culture supernatant with Qiagen automatic DNA extraction device, and the specific method referred to the instructions of the reagents and instruments. Finally, the extracted DNA was eluted with DNA elution buffer at 100 μl/well. The extracted DNA was subjected to quantitative PCR analysis of HBV DNA using Hepatitis B virus nucleic acid quantitative detection kit (Triplex International Biosciences Co., Ltd.), and the specific method referred to the instruction of the kit. The quantitative standard curve was obtained with the standard sample provided in the kit, and the experiments were performed in parallel. Quantitative conversion of each sample was carried out according to the standard curve. Finally, the EC50 value of the compound was calculated with Graphpad Prism software according to each concentration of the compound and the corresponding DNA value.
The in vitro activity of the compound of the present invention on inhibiting the HBV DNA replication by inhibiting the assembly of HBV capsid protein was determined by the above experiment.

[2] = Effect on in vitro proliferation of HepG2 cells (CellTiter-Glo); assay type: cell-based; settings: human; HepG2 cells, 72 hours, CellTiter-Glo
Description: Test Example 2. Effect of the Compound of the Present Invention on In Vitro Proliferation of HepG2 Cells
HepG2 cells in logarithmic growth phase were taken and digested with trypsin to prepare a cell suspension, which was incubated in a 96-well plate (transparent bottom white 96-well plate, PerkinElmer) at 6,000 cells/well, at 5% carbon dioxide, 37° C. for 16-20 hours. On Day 2, the compound was dissolved in pure DMSO at a concentration of 20 mM. The compound was diluted in 3-fold concentration gradient using an automatic pipetting station (Bravo), 8 concentration points for each compound, and the control well was DMSO. The compound formulated in DMSO at each concentration point was diluted 200-fold with EMEM (containing 10% FBS) medium. The cell culture plate inoculated on Day 1 was taken out. The medium in the wells was removed by a negative pressure suction device, and the formulated medium containing the compound at each concentration was added respectively to each well at 100 μl/well. The plate was incubated at 37° C. for 72 hours. On Day 5, the 96-well cell culture plate was taken out, and freshly formulated CellTiter Glo was added to each well at 100 μl/well. The 96-well plate was left to stand for 5-10 minutes, the bottom was then sealed with a white bottom sealing film (PerkinElmer). The plate was placed in the microplate reader to measure the luminescence signal. The CC50 value of the compound was calculated with Graphpad Prism software according to each concentration of the compound and the corresponding proliferation inhibition signal value.
The inhibition effect of the compound of the present invention on in vitro proliferation of HepG2 cells was determined by the above experiment.

[3] = Pharmacokinetics assay in rats after intragastrical administration (LC/MS/MS of plasma); assay type: in vivo; settings: both sexes, rat, plasma, po, SD rats, 2 mg/kg
Description: Pharmacokinetics assay of the compound of the present invention
Rats were used as test animals. The drug concentration in plasma at different time points was determined by LC/MS/MS method after intragastrical administration of the compound of Example 1, the compound of Example 2, the compound of Example 4, the compound of Example 6, the compound of Example 7, the compound of Example 11, the compound of Example 39, the compound of Example 42, the compound of Example 44, the compound of Example 45 and the compound of Example 47 to rats. The pharmacokinetic behavior and property of the compound of the present invention were studied and evaluated in rats.
44 Healthy adult SD rats (half male and half female, 4 rats/group) were purchased from Shanghai Jiesijie Laboratory Animal Co., LTD, with Certificate No.: SCXK (Shanghai) 2013-0006.
A certain amount of the test compound was weighed, and added with 5% by volume of DMSO, 5% by volume of tween 80 and 90% by volume of normal saline to prepare a 0.2 mg/mL colorless, clear and transparent solution.
After an overnight fast, SD rats were administrated intragastrically with the test compound at an administration dose of 2.0 mg/kg and an administration volume of 10.0 mL/kg.
The rats were intragastrically administrated the compound of Example 1, the compound of Example 2, the compound of Example 4, the compound of Example 6, the compound of Example 7, the compound of Example 11, the compound of Example 39, the compound of Example 42, the compound of Example 44, the compound of Example 45 and the compound of Example 47. 0.1 ml of blood was taken from the orbit before administration and at 0.5, 1.0, 2.0, 4.0, 6.0, 8.0, 11.0 and 24.0 hours after administration. The samples were stored in heparinized tubes, and centrifuged for 10 minutes at 3500 rpm to separate the blood plasma. The plasma samples were stored at −20° C. The rats were fed two hours after administration.
The content of the test compound in the plasma of rats after intragastrical administration of the test compound at different concentrations was determined: 25 μL of rat plasma at each time after administration was taken, added with 40 μL of the internal standard solution of camptothecin (100 ng/mL) and 200 μL of acetonitrile, vortex-mixed for 5 minutes, and centrifuged for 10 minutes (4000 rpm). 0.2 μL of the supernatant was taken from the plasma samples for LC/MS/MS analysis.

With `C[C@H]1Cn2cnc(C(=O)NC3(C)CC3)c2CN1C(=O)Nc1ccc(F)c(C#N)c1` [Example 48, (S)—N^7-(3-Cyano-4-fluorophenyl)-6-methyl-N^1-(1-methylcyclopropyl)-5,6-dihydroimidazo[1,5-α]pyrazine-1,7(8H)-dicarboxamide] the EC50 [1] was 93 nM, the Emax [1] was 98% and the CC50 at 72 h [2] was over 100000 nM.
Molecule `Cc1cc(NC(=O)N2Cc3c(C(=O)N[C@H](C)C(F)(F)F)nnn3C[C@@H]2C)ccc1F` [Example 40, (S)—N^5-(4-Fluoro-3-methylphenyl)-6-methyl-N^3-((R)-1,1,1-trifluoropropan-2-yl)-6,7-dihydro-[1,2,3]triazolo[1,5-α]pyrazine-3,5(4H)-dicarboxamide] has an EC50 [1] of 20 nM, an Emax [1] of 100% and a CC50 at 72 h [2] of over 100000 nM.
With `C[C@H]1Cn2ncc(C(=O)N[C@H](C)C(F)(F)F)c2CN1C(=O)Nc1cc(F)nc(F)c1` [Example 16, (S)—N^5-(2,6-Difluoropyridin-4-yl)-6-methyl-N^3-((R)-1,1,1-trifluoropropan-2-yl)-6,7-dihydropyrazolo[1,5-α]pyrazine-3,5(4H)-dicarboxamide] the EC50 [1] was 50 nM, the Emax [1] was 100% and the CC50 at 72 h [2] was over 100000 nM.
`C[C@H]1Cn2cnc(C(=O)NC3(C)CCC3)c2CN1C(=O)Nc1ccc(F)c(C#N)c1` [Example 46, (S)—N^7-(3-Cyano-4-fluorophenyl)-6-methyl-N^1-(1-methylcyclobutyl)-5,6-dihydroimidazo[1,5-α]pyrazine-1,7(8H)-dicarboxamide] gave an EC50 [1] of 65 nM, an Emax [1] of 97% and a CC50 at 72 h [2] of over 100000 nM.
With `C[C@@H](NC(=O)c1ncn2c1CN(C(=O)Nc1cc(F)c(F)c(F)c1)CC2)C(F)(F)F` [Example 1, (R)—N^7-(3,4,5-Trifluorophenyl)-N^1-(1,1,1-trifluoropropan-2-yl)-5,6-dihydroimidazo[1,5-α]pyrazine-1,7(8H)-dicarboxamide] the Vd/F ([3]; read-out: Apparent distribution volume Vz/F) was 2.36 ± 0.245 L/kg, the AUC ([3]; read-out: Area under curve AUC) was 14400 ± 3010 ng·h/mL and the bioavailability ([3]; read-out: Bioavailability (%) F %) was 119%. For the same molecule, the CL/F ([3]; read-out: Clearance CLz/F) was 2.39 ± 0.5 mL/min/kg, the half-life ([3]; read-out: Half-life T1/2 (converted)) was 11.7 ± 2.3 h and the Cmax ([3]; read-out: Plasma concentration Cmax) was 640 ± 102 ng/mL. It also gave an MRT ([3]; read-out: Residence time MRT) of 17.4 ± 3 h.
Molecule `C[C@H]1Cn2ncc(C(=O)NC(C)(C)C)c2CN1C(=O)Nc1cc(F)c(F)c(F)c1` [Example 10, (S)—N^3-(Tert-butyl)-6-methyl-N^5-(3,4,5-trifluorophenyl)-6,7-dihydropyrazolo[1,5-α]pyrazine-3,5(4H)-dicarboxamide] has an EC50 [1] of 29 nM, an Emax [1] of 100% and a CC50 at 72 h [2] of over 100000 nM.
Molecule `Cc1cc(NC(=O)N2Cc3c(C(=O)N[C@H](C)C(F)(F)F)ncn3C[C@@H]2C)ccc1F` [Example 58, (S)—N^7-(4-Fluoro-3-methylphenyl)-6-methyl-N^1-((R)-1,1,1-trifluoropropan-2-yl)-5,6-dihydroimidazo[1,5-α]pyrazine-1,7(8H)-dicarboxamide] has an EC50 [1] of 15 nM, an Emax [1] of 100% and a CC50 at 72 h [2] of over 100000 nM.
`C[C@H]1Cn2cnc(C(=O)NC3(C)COC3)c2CN1C(=O)Nc1cc(F)c(F)c(F)c1` [Example 13, (S)-6-Methyl-N^1-(3-methyloxetan-3-yl)-N^7-(3,4,5-trifluorophenyl)-5,6-dihydroimidazo[1,5-α]pyrazine-1,7(8H)-dicarboxamide] showed an EC50 [1] of 35 nM, an Emax [1] of 100% and a CC50 at 72 h [2] of over 100000 nM.
Work on `C[C@H]1Cn2ncc(C(=O)N[C@H](C)C(F)(F)F)c2CN1C(=O)Nc1ccc(F)c(C#N)c1` [Example 15, (S)—N^5-(3-Cyano-4-fluorophenyl)-6-methyl-N^3-((R)-1,1,1-trifluoropropan-2-yl)-6,7-dihydropyrazolo[1,5-α]pyrazine-3,5(4H)-dicarboxamide] yielded an EC50 [1] of 29 nM, an Emax [1] of 100% and a CC50 at 72 h [2] of over 100000 nM.
In the case of `C[C@H]1Cn2cnc(C(=O)NC(C)(C)C)c2CN1C(=O)Nc1ccc(F)c(F)c1` [Example 12, (S)—N^1-(Tert-butyl)-N^7-(3,4-difluorophenyl)-6-methyl-5,6-dihydroimidazo[1,5-α]pyrazine-1,7-(8H)-dicarboxamide], the EC50 [1] is reported as 32 nM, the Emax [1] is reported as 100% and the CC50 at 72 h [2] is reported as over 100000 nM.
`C[C@H]1Cn2ncc(C(=O)NC(C)(C)C)c2CN1C(=O)Nc1ccc(F)c(F)c1` [Example 8, (S)—N^3-(Tert-butyl)-N^5-(3,4-difluorophenyl)-6-methyl-6,7-dihydropyrazolo[1,5-α]pyrazine-3,5(4H)-dicarboxamide] showed an EC50 [1] of 15 nM, an Emax [1] of 100% and a CC50 at 72 h [2] of over 100000 nM.
With `C[C@@H](NC(=O)c1cnn2c1CN(C(=O)Nc1ccc(F)c(C#N)c1)CC2)C(F)(F)F` [Example 9, (R)—N^5-(3-Cyano-4-fluorophenyl)-N^3-(1,1,1-trifluoropropan-2-yl)-6,7-dihydropyrazolo[1,5-α]pyrazine-3,5(4H)-dicarboxamide] the EC50 [1] was 28 nM, the Emax [1] was 100% and the CC50 at 72 h [2] was over 100000 nM.
`C[C@H]1Cn2cnc(C(=O)N3CCCC3)c2CN1C(=O)Nc1ccc(F)c(F)c1` [Example 59, (S)—N-(3,4-Difluorophenyl)-6-methyl-1-(pyrrolidine-1-carbonyl)-5,6-dihydroimidazo[1,5-α]pyrazine-7(8H)-carboxamide, reference compound] showed an EC50 [1] of 5270 nM and an Emax [1] of 90%.
